In ChEMBL document CHEMBL1201862, “PubChem BioAssay data set” (2004):
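Grown in 96-well plates, cells were treated for 48 hours with each compound at five concentrations. Insufficient inhibition: endpoint recorded as highest concentration tested. GI50 is the concentration that inhibits growth by half.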 Active and inactive are the calls of the source. Rule as the data show it: active = GI50 up to about 1.1 µM and inactive = higher.

Experiments:
Test in all cases: growth of human tumour cells (NCI), 48 h
[1] = tested on: A498
[2] = tested on: ACHN
[3] = tested on: HCC 2998
[4] = tested on: HL-60
[5] = tested on: HOP-92
[6] = tested on: HT-29
[7] = tested on: IGROV-1
[8] = tested on: KM12
[9] = tested on: NCI-H23
[10] = tested on: OVCAR-4
[11] = tested on: RPMI-8226
[12] = tested on: SF-539
[13] = tested on: SK-MEL-28
[14] = tested on: SK-MEL-5
[15] = tested on: SN12C
[16] = tested on: SR
[17] = tested on: TK-10
[18] = tested on: UO-31
[19] = tested on: SK-MEL-2
[20] = tested on: DU-145

| Compound | GI50 [1] | GI50 [2] | GI50 [3] | GI50 [4] | GI50 [5] | GI50 [6] | GI50 [7] | GI50 [8] | GI50 [9] | GI50 [10] | GI50 [11] | GI50 [12] | GI50 [13] | GI50 [14] | GI50 [15] | GI50 [16] | GI50 [17] | GI50 [18] | GI50 [19] | GI50 [20] |
| --- | --- | --- | --- | --- | --- | --- | --- | --- | --- | --- | --- | --- | --- | --- | --- | --- | --- | --- | --- | --- |
| COc1ccc(O)cc1C=O | > 100 µM (inactive) | > 100 µM (inactive) | > 100 µM (inactive) | 21.4 µM (inactive) | > 100 µM (inactive) | > 100 µM (inactive) | > 100 µM (inactive) | 23.8 µM (inactive) | > 100 µM (inactive) | > 100 µM (inactive) | 60.1 µM (inactive) | > 100 µM (inactive) | 65.3 µM (inactive) | 61 µM (inactive) | > 100 µM (inactive) | 18.8 µM (inactive) | > 100 µM (inactive) | > 100 µM (inactive) |  |  |
| C[C@]12CCC(=O)C[C@H]1CCC(O)[C@@H]2Br (stereo partly drawn) | > 100 µM (inactive) | > 100 µM (inactive) | > 100 µM (inactive) | > 100 µM (inactive) | > 100 µM (inactive) | > 100 µM (inactive) | > 100 µM (inactive) | > 100 µM (inactive) | > 100 µM (inactive) | > 100 µM (inactive) | > 100 µM (inactive) | > 100 µM (inactive) | > 100 µM (inactive) | > 100 µM (inactive) | > 100 µM (inactive) | > 100 µM (inactive) | > 100 µM (inactive) | > 100 µM (inactive) | > 100 µM (inactive) |  |
| CCCCCC[C@H]1CC(=O)C2CCCC[C@@]23CC[C@H](CCl)N13.CCCCCC[C@H]1CC(=O)C2CCCC[C@@]23C[C@H](Cl)CN13 (stereo partly drawn) | > 100 µM (inactive) | 53.5 µM (inactive) | > 100 µM (inactive) | 21.8 µM (inactive) | 24.2 µM (inactive) | 61.9 µM (inactive) | > 100 µM (inactive) | 49.8 µM (inactive) | 47.5 µM (inactive) | 40.2 µM (inactive) | 20.7 µM (inactive) | 69.5 µM (inactive) | 38.1 µM (inactive) | 17.2 µM (inactive) | 82 µM (inactive) |  | 43.9 µM (inactive) | 24.3 µM (inactive) | > 100 µM (inactive) | 61 µM (inactive) |
| Cc1c(-c2nnc(-c3ccc(Cl)cc3)o2)c(=O)n(-c2ccccc2)n1C | > 100 µM (inactive) | > 100 µM (inactive) | > 100 µM (inactive) | > 100 µM (inactive) | > 100 µM (inactive) | > 100 µM (inactive) | > 100 µM (inactive) | > 100 µM (inactive) | > 100 µM (inactive) | > 100 µM (inactive) | > 100 µM (inactive) | 3.33 µM (inactive) | > 100 µM (inactive) |  | > 100 µM (inactive) | > 100 µM (inactive) | > 100 µM (inactive) | > 100 µM (inactive) | > 100 µM (inactive) |  |
| COC(=O)C(=O)C(C(=O)C=C(C)C)C(=O)C(=O)Nc1ccc(Cl)cc1C (stereo not drawn) | > 100 µM (inactive) | > 100 µM (inactive) | > 100 µM (inactive) | > 100 µM (inactive) | > 100 µM (inactive) | > 100 µM (inactive) | > 100 µM (inactive) | > 100 µM (inactive) | > 100 µM (inactive) | > 100 µM (inactive) | 70 µM (inactive) | > 100 µM (inactive) | > 100 µM (inactive) | > 100 µM (inactive) | > 100 µM (inactive) | 23.3 µM (inactive) | > 100 µM (inactive) | > 100 µM (inactive) | > 100 µM (inactive) |  |
| O=C1[C@H]2ON(c3ccccc3)C(c3ccccc3Cl)[C@H]2C(=O)N1c1ccc(Cc2ccc(N3C(=O)[C@@H]4ON(c5ccccc5)C(c5ccccc5Cl)[C@@H]4C3=O)cc2)cc1 (stereo partly drawn) | > 100 µM (inactive) | > 100 µM (inactive) | > 100 µM (inactive) | > 100 µM (inactive) | 71 µM (inactive) | > 100 µM (inactive) | > 100 µM (inactive) | > 100 µM (inactive) | > 100 µM (inactive) | > 100 µM (inactive) | > 100 µM (inactive) | > 100 µM (inactive) | > 100 µM (inactive) | 71.3 µM (inactive) | > 100 µM (inactive) | > 100 µM (inactive) | > 100 µM (inactive) | > 100 µM (inactive) | > 100 µM (inactive) |  |
| COc1ccc(NCn2nc(CCCCCCCCc3nn(CNc4ccc(OC)cc4)c(=S)o3)oc2=S)cc1 | > 100 µM (inactive) | > 100 µM (inactive) | > 100 µM (inactive) |  | > 100 µM (inactive) | > 100 µM (inactive) |  | > 100 µM (inactive) | > 100 µM (inactive) | > 100 µM (inactive) | > 100 µM (inactive) |  | > 100 µM (inactive) | > 100 µM (inactive) | > 100 µM (inactive) |  | > 100 µM (inactive) | > 100 µM (inactive) | > 100 µM (inactive) | > 100 µM (inactive) |
| CCCCCC/C=C1\CCC(CN2CCCC2)C1=O (stereo not drawn) | 22.8 µM (inactive) | 18.3 µM (inactive) | 17.5 µM (inactive) | 2.33 µM (inactive) | 16.7 µM (inactive) | 13.9 µM (inactive) | 19.7 µM (inactive) | 3.56 µM (inactive) | 16.9 µM (inactive) | 22.8 µM (inactive) | 2.01 µM (inactive) | 19 µM (inactive) | 19.1 µM (inactive) | 18.6 µM (inactive) | 12.9 µM (inactive) | 2.99 µM (inactive) | 6.56 µM (inactive) | 18.9 µM (inactive) | 15.8 µM (inactive) |  |
| N#CSc1ccc(S(N)(=O)=O)cc1 | > 100 µM (inactive) | 29.6 µM (inactive) | > 100 µM (inactive) | 14.3 µM (inactive) | > 100 µM (inactive) | 82 µM (inactive) | 49.7 µM (inactive) | > 100 µM (inactive) | > 100 µM (inactive) | 30.3 µM (inactive) | 26.5 µM (inactive) | 25.1 µM (inactive) | 76.7 µM (inactive) | 75.2 µM (inactive) | > 100 µM (inactive) |  | 75.5 µM (inactive) | 19.4 µM (inactive) | 46.5 µM (inactive) | > 100 µM (inactive) |
| Cn1c(N=[N+]=[N-])cc(=O)n(C)c1=O | > 100 µM (inactive) | > 100 µM (inactive) | > 100 µM (inactive) |  | > 100 µM (inactive) | > 100 µM (inactive) | > 100 µM (inactive) | > 100 µM (inactive) | > 100 µM (inactive) | > 100 µM (inactive) | > 100 µM (inactive) | > 100 µM (inactive) |  | > 100 µM (inactive) | > 100 µM (inactive) | > 100 µM (inactive) | > 100 µM (inactive) | > 100 µM (inactive) | > 100 µM (inactive) |  |
| CC1=NNC(=O)C1C(CC(=O)c1c[nH]c2ccccc12)C(=O)O (stereo not drawn) | > 100 µM (inactive) | > 100 µM (inactive) |  | 74.5 µM (inactive) | > 100 µM (inactive) | > 100 µM (inactive) | 15 µM (inactive) | 30.1 µM (inactive) | > 100 µM (inactive) |  | 35.1 µM (inactive) | > 100 µM (inactive) | > 100 µM (inactive) | > 100 µM (inactive) | > 100 µM (inactive) |  | > 100 µM (inactive) | 64.3 µM (inactive) | > 100 µM (inactive) | > 100 µM (inactive) |
| O=C(CCN1CCCCC1CCO)Nc1ccc2c(c1)C(=O)c1ccc(NC(=O)CCN3CCCCC3CCO)cc1C2=O (stereo not drawn) | 1.86 µM (inactive) | 7.93 µM (inactive) | 0.0418 µM (active) | 3.24 µM (inactive) | 13.2 µM (inactive) | 5.52 µM (inactive) | 4.9 µM (inactive) | 2.54 µM (inactive) | 15 µM (inactive) | 12.4 µM (inactive) | 4.45 µM (inactive) | 2.1 µM (inactive) | 10.1 µM (inactive) | 9.4 µM (inactive) | 3.67 µM (inactive) | 4.14 µM (inactive) | 3.1 µM (inactive) | > 100 µM (inactive) | 2.49 µM (inactive) |  |
| COC(=O)CC[C@]12C[C@]13CC[C@]1(C)C4C(C)C[C@]5(CC(C)C(=O)O5)OC4CC1(C)C3CCC2C(C)(C)O (stereo partly drawn) | > 100 µM (inactive) | 88.3 µM (inactive) | 51.5 µM (inactive) | 23.3 µM (inactive) | 23.7 µM (inactive) | > 100 µM (inactive) | 65.6 µM (inactive) | 48.3 µM (inactive) | 97.3 µM (inactive) | 95.9 µM (inactive) | 25.4 µM (inactive) | 50.6 µM (inactive) | 84.9 µM (inactive) | 35.6 µM (inactive) | 61.5 µM (inactive) | 42.2 µM (inactive) | > 100 µM (inactive) | 59.2 µM (inactive) | 26.7 µM (inactive) |  |
| COC1=C(C)C(=O)c2c(cc3c(c2O)C(C)(CCC=C(C)C)C(C)O3)C1=O (stereo not drawn) | 16.3 µM (inactive) | > 100 µM (inactive) | 42.1 µM (inactive) | > 100 µM (inactive) | > 100 µM (inactive) | 37 µM (inactive) | > 100 µM (inactive) | > 55.7 µM (inactive) | 9.71 µM (inactive) | > 100 µM (inactive) | > 100 µM (inactive) | > 100 µM (inactive) | > 100 µM (inactive) | 13.4 µM (inactive) | 33.5 µM (inactive) | > 85.7 µM (inactive) | > 100 µM (inactive) | > 100 µM (inactive) | 30.2 µM (inactive) |  |
| NC(=O)C1Cc2cc3c(cc21)OCO3 (stereo not drawn) |  | > 100 µM (inactive) | > 100 µM (inactive) |  |  | > 100 µM (inactive) | > 100 µM (inactive) | > 100 µM (inactive) | > 100 µM (inactive) |  |  | > 100 µM (inactive) |  | > 100 µM (inactive) |  |  | > 100 µM (inactive) | > 100 µM (inactive) |  | > 100 µM (inactive) |
